Results published in patent US8569286B2, “Notch pathway signaling inhibitor compound” (Eli Lilly and Company, priority 2011, dated 2013).

Legend:
[1] = Metabolism by liver microsomes optimized for oxidative CYP450 metabolism; format: in vitro ADME
major CYP450 enzymes = test: CYP450 inhibition and induction; format: in vitro ADME
HEK293ΔE12 cells = test: Relative cytotoxicity profiling (% cell number) in the N1ICD imaging assay; format: cell-based; settings: 24 hours treatment
Method: (§1) HEK293ΔE12 cells (HEK293 cells are engineered to stably express mouse Notch 1 cDNA coding for amino acid 1703-2183, NP_032740.3, with 23 amino acid signal peptide sequence, […] (SEQ ID NO:1), at its N-terminus) are plated at 5000 cells/well in 96 well plates, incubated in Dulbecco's Modified Eagle's Medium-high glucose with 5% fetal bovine serum at 37° C., 5% CO2 for 24 hours. Cells are treated with test compound, dosing at 10 points of 1:3 dilutions across the range of 1000 nM to 0.05 nM, and with final dimethyl sulfoxide (DMSO) concentration at 0.2%. […] Plates are scanned with ACUMEN EXPLORER™ Laser-scanning fluorescence microplate cytometer (TTP LABTECH LTD) to measure total cell nuclear count/well and total nuclear area/well with fluorescence at 655 nm-705 nm (emission of DNA bound propidium iodide) and fluorescence of antibody binding to N1ICD in nuclear region at 505 nm-530 nm. The main assay output is a ratio of total fluorescence of nuclear N1ICD to total nuclear area, the normalized nuclear N1ICD signal. […] Concentration response and the IC50 are determined by curve fitting to a four parameter logistic for the nuclear N1ICD signal, while the % cell number is plotted in the same graph for cytotoxicity profiling.

[2] = In vivo metabolism and excretion in dogs
[3] = tested on: mouse Notch 1 (nuclear N1ICD signal); test: Notch1 N1ICD Nuclear Accumulation Cellular Imaging Assay; format: cell-based; settings: HEK293ΔE12 cells, 24 hours treatment, n=7
Method: as §1

[4] = In vivo pharmacokinetics, excretion and metabolism in rats
Method: Compound 1 was evaluated in vivo in bile-duct cannulated rats to study systemic pharmacokinetics (PK), excretion, and metabolism. In vivo 51% of the IV dose was excreted unchanged, predominately in the urine, with low (2% of parent) systemic exposure to an active N-dealkylated metabolite, 4,4,4-trifluoro-N-[(1S)-1-methyl-2-oxo-2-[[(7S)-6-oxo-5,7-dihydropyrido[2,3-d][3]benzazepin-7-yl]amino]ethyl]butanamide.

[5] = Atropisomer equilibrium in solution (1H NMR and LC-MS); format: physicochemical; settings: ambient temperature, after 24 hours
Method: In aqueous solutions, 8-9% of atropisomer 2 (minor atropisomer) is detected by ^1H NMR and LC-MS in equilibrium with atropisomer 1 (major atropisomer) at ambient temperature after 24 hours. In organic solvents, at ambient temperature after 24 hours, approximately 1-2% of atropisomer 2 is detected by ^1H NMR and LC-MS in equilibrium with atropisomer 1. Although detectable by ^1H NMR and LC-MS analysis, atropisomer 2 is not isolable.

N1ICD cleavage (Notch1) = test: Inhibition of N1ICD cleavage in human tumor cell lines (N1ICD ELISA); format: cell-based; settings: 24 hours treatment
Excerpt: To evaluate potency of Compound 1 in its ability to inhibit N1ICD cleavage, several human tumor cell lines are utilized. A2780 is a human ovarian cell line (Sigma-Aldrich, No. 93112519); MIA PaCa-2 is a human pancreas cell line (ATCC No. CRL-1420); BxPC-3 is a human pancreas cell line (ATCC No. CRL-1687); SW480 is a human colorectal cell line (ATCC No. CCL-228); HCT 116 is a human colorectal cell line (ATCC No. CCL-247); DLD-1 is a human colorectal cell line (ATCC No. CCL-221); MDA-MB-231 is a human mammary gland cell line (ATCC No. HTB-26); U-87 MG is a human glioblastoma cell line (ATCC No. HTB-14); A375 is a human malignant melanoma cell line (ATCC No. CRL-1619); CCRF-CEM is a human acute lymphoblastic leukemia (ALL) cell line (ATCC No. CCL-119); SUP-T1 is a human T-cell lymphoblastic leukemia cell line (ATCC No. CRL-1942); K-562 is a human chronic myelogenous leukemia (CML) cell line characterized by the presence of a fusion transcript comprised of the Bcr and Abl1 genes (ATCC No. CCL-243); Jurkat, Clone E6-1 is a human acute T-cell leukemia cell line (ATCC No. TIB-152); MOLT-3 is a human acute lymphoblastic leukemia (ALL) cell line (ATCC No. CRL-1552); MOLT-4 is a human acute lymphoblastic leukemia (ALL) cell line (ATCC No. CRL-1582); HEL 92.1.7 is a human erythroleukemia cell line (ATCC No. TIB-180). Each of the cell lines are obtained from the American Type Culture Collection (ATCC) at the ATCC number stated, except the A2780 cell line which is obtained from Sigma-Aldrich at the stated catalog number. The cells are grown in their respective culture media at 37° C. in 5% CO2 with humidity in the atmosphere. Cell culture media for A2780 human ovarian carcinoma is RPMI-1640 (without phenol red) with 2.05 mM L-glutamine, added 2 mM L-glutamine, 0.01 mg/ml insulin and 10% fetal bovine serum (FBS); for HCT 116 human colorectal carcinoma is McCoy's 5A with 1.5 mM L-glutamine, 0.075% Na-bicarbonate and 10% FBS; for SW480 human colorectal carcinoma is RPMI-1640 with 2.05 mM L-glutamine, 20 mM HEPES and 10% FBS; U-87 MG human glioblastoma is Minimal Essential Medium/Earl's Balanced Salt Solution with 2 mM L-glutamine, 0.1 mM Non-essential amino acids (NEAA), 1 mM Na-pyruvate, and 10% FBS; for MIA PaCa-2 human pancreatic carcinoma is Dulbecco's Modified Eagles Medium (DMEM) without Na-pyruvate, with high glucose ([…]), 4 mM L-glutamine, 2.5% horse serum and 10% FBS; for K-562 human CML is DMEM with high glucose ([…]), 4 mM L-glutamine, 10 mM HEPES, 0.1 mM NEAA, 1 mM Na-pyruvate and 10% FBS; for Jurkat, Clone E6-1 human acute T cell leukemia is RPMI-1640 with 2.05 mM L-glutamine, 2.5 g/L glucose, 10 mM HEPES, 1 mM Na-pyruvate, 0.075% Na-bicarbonate and 10% FBS; for A-375 human malignant melanoma and MDA-MB-231 human breast adenocarcinoma is DMEM with high glucose ([…]), 4 mM L-glutamine and 10% FBS; for BxPC-3 human pancreatic adenocarcinoma, DLD-1 human colorectal adenocarcinoma, SUP-T1 human lymphoblastic leukemia, MOLT-3 human ALL, Molt-4 human ALL, CCRF-CEM human ALL, and HEL 92.1.7 human erythroleukemia is RPMI-1640 with 2.05 mM L-glutamine, 2.5 g/L glucose, 20 mM HEPES, 1 mM Na-pyruvate, and 10% FBS. When 80-90% confluent, cells are treated with compound, dosing at 10 points of 1:3 dilutions across the range of 50 nM to 0.0025 nM, and with final dimethyl sulfoxide (DMSO) concentration at 0.01%. […]

inhibition or induction of the major CYP450 enzymes (major CYP450 enzymes): not an inhibitor or inducer | major oxidative metabolites in circulation or excreta ([2]; dogs in vivo): not observed | IC50 [3]: 0.41 nM | dose excreted unchanged ([4]; bile-duct cannulated rats, IV dose, predominately in the urine): 51% | major oxidative metabolites in circulation or excreta ([4]; rats in vivo): not observed | atropisomer 2 (minor atropisomer) in equilibrium with atropisomer 1 ([5]; aqueous solutions): 8-9% | atropisomer 2 (minor atropisomer) in equilibrium with atropisomer 1 ([5]; organic solvents): 1-2% | IC50 (N1ICD cleavage (Notch1); A2780 cells): 1.03 nM | IC50 (N1ICD cleavage (Notch1); A-375 cells): 0.48 nM | IC50 (N1ICD cleavage (Notch1); BxPC-3 cells): 0.39 nM | IC50 (N1ICD cleavage (Notch1); CCRF-CEM cells): 0.76 nM | IC50 (N1ICD cleavage (Notch1); DLD-1 cells): 0.98 nM | IC50 (N1ICD cleavage (Notch1); HCT 116 cells): 0.72 nM | IC50 (N1ICD cleavage (Notch1); HEL 92.1.7 cells): 0.23 nM | IC50 (N1ICD cleavage (Notch1); Jurkat cells): 5.95 nM | IC50 (N1ICD cleavage (Notch1); K-562 cells): 0.74 nM | IC50 (N1ICD cleavage (Notch1); MDA-MB-231 cells): 0.5 nM | IC50 (N1ICD cleavage (Notch1); MIA PaCa-2 cells): 0.71 nM | IC50 (N1ICD cleavage (Notch1); MOLT-3 cells): 0.61 nM | IC50 (N1ICD cleavage (Notch1); MOLT-4 cells): 0.74 nM | IC50 (N1ICD cleavage (Notch1); SUP-T1 cells): 1.24 nM | IC50 (N1ICD cleavage (Notch1); SW480 cells): 0.1 nM | IC50 (N1ICD cleavage (Notch1); U-87 MG cells): 0.28 nM
SMILES: C[C@H](NC(=O)CCC(F)(F)F)C(=O)N[C@@H]1C(=O)N(CCO)c2ncccc2-c2ccccc21 [Compound 1, 4,4,4-trifluoro-N-[(1S)-2-[[(7S)-5-(2-hydroxyethyl)-6-oxo-7H-pyrido[2,3-d][3]benzazepin-7-yl]amino]-1-methyl-2-oxo-ethyl]butanamide]
metabolism by liver microsomes [1]: not metabolized to any appreciable extent | concentration up to which cell number is not affected (cytotoxicity profiling) (HEK293ΔE12 cells): > 1000 nM | clearance by excretion of parent compound ([2]; bile-duct intact dogs): appreciable clearance by excretion of parent compound | major circulating active metabolites ([2]; bile-duct intact dogs): absence of major circulating active metabolites | additional circulating metabolites (profiling of rat plasma) ([4]; rat plasma): absence of additional circulating metabolites
